Assay results published in patent US20230073755A1, “USE OF IGF1 IN COMBINATION WITH IGFEC24 IN PREPARATION OF MEDICINE FOR PROMOTING TISSUE REPAIR AND REGENERATION” (Chongqing University, priority 2020, published 2023).

Assays:
neuronal cells = test: Neuroproliferation effect (Edu / DCX immunofluorescence, hippocampal dentate gyrus), adult female SD rats; type: in vivo; details: FIG. 4
Method: In certain embodiments, adult female SD rats were divided into five groups: PBS group, IGF1 group, IGF1Ec group, IGF1-24 group, and IGF1+IGF1Ec24 peptide group, with three rats in each group. The rats in each group were distinguished by ear clipping for subsequent protein injection according to the different body weights of the rats.
The rats in each group were injected with PBS, IGF1, IGF1Ec24 peptide, IGF1Ec and IGF1-24 for 7 consecutive days. Recombinant protein IGF1-24 was injected at 100 μg/kg, and the injection of the remaining proteins in each group was converted according to the molar amount of IGF1-24 injection as follows: 90 μg/kg for IGF1, 8.9 μg/kg for IGF1Ec24 peptide, 104 μg/kg for IGF1Ec.
After seven days of protein injection, the intraperitoneal injection of Edu solution at a concentration of 2.5 mg/kg was performed for seven days, so that the final total dose of each rat reached 50 mg/kg. […]
The microscope was selected with a 20× lens to observe the fluorescence staining of the dentate gyrus in the whole hippocampal region; the number of immature neurons and the number of newly proliferating neuronal cells in the dentate gyrus of the hippocampus were recorded.

myocardial tissue = test: Myocardial injury repair in rat model of isoproterenol (ISO) myocardial injury; type: in vivo
Method: The rats were randomly selected and assigned into injection and control groups, with three rats in each group. The myocardial injury model was constructed by injecting an overdose of ISO at a dose of 80 mg/kg. The rats were fixed with a fixator to expose the abdomen; the rats were disinfected by wiping with alcohol cotton balls, and the amount of ISO injected was matched to their body weight, and then the rats were injected intraperitoneally for 1 week.
The rat was fixed with a fixator to keep its tail naturally down; before injection, the rat's tail was soaked in warm water for 3-4 min until the tail vein was seen clearly; then the rat's tail was wiped with an alcohol cotton ball for disinfection; then, when injecting the protein, the needle was injected at a minimal angle to the tail vein to keep it horizontal; after pushing the drug into the blood vessel, the wound was pressed with an alcohol cotton ball, and then the needle was withdrawn.
In order to fully remove the paraffin from the top of the slices, Paraffin sections of myocardial tissues were completely immersed in xylene twice, each time for 15 min; then the paraffin sections of cardiac tissues were placed into 100% ethanol solution, 95% ethanol solution, 75% ethanol solution, 50% ethanol solution and 3dH2O in turn, with a soaking time of 10 min for each gradient. The paraffin sections were removed and hematoxylin was added dropwise at the myocardial tissue in the sections for nuclear staining with a staining time of 8 min. immediately after the staining was completed, the sections were rinsed with tap water for 5 min, then differentiation solution was added dropwise at the myocardial tissue in the sections with a differentiation time of 20 s, and finally the sections were rinsed with tap water for 5 min. the sections were removed and eosin staining solution was added dropwise at the tissue with a staining time of 1 min, and finally the sections were rinsed with tap water Rinse the slices for 5 min. soak the paraffin sections according to a gradient of 50%, 75%, 95% and 100% ethanol, each for 5 min; then soak them twice in xylene for 2 min/time. Paraffin sections were removed from xylene, keeping xylene still retained on the sections; neutral gum was quickly added dropwise, and coverslips were picked up with forceps, and the coverslips were put down slowly.
The sections were soaked in xylene twice for 15 min/time; soaked sequentially according to a gradient of anhydrous ethanol, 95%, 75% and 50% alcohol solutions, each gradient for 5 min; finally the sections were soaked in triple distilled water for 5 min. equal amounts of Weigert iron hematoxylin A solution and B solution were mixed, and the mixture was added dropwise to the tissues, stained The sections were removed, and differentiation solution was added dropwise to the myocardial tissue for 20 s, and rinsed with tap water for 5 min. bluing solution was added dropwise to the tissue of the sections, and returned to blue treatment for 5 min, and rinsed with tap water for 5 min. lixin red magenta staining solution was added dropwise to the tissue of the sections, and staining time was 1 min, and rinsed with tap water for 5 min. 20% of Add phosphomolybdic acid solution dropwise on the tissue, stain for 5 min, pour off the phosphomolybdic acid solution on the section. Aniline blue staining solution was added dropwise for 5 min to re-stain the sections, and the aniline blue solution on the sections was poured off. […]

IGF1-24: 97 amino acids: amino-terminal 70 identical to IGF1, carboxyl-terminal 24 identical to IGFEc24 peptide, joined by three Gly linkers (SEQ ID NO: 4)
proliferation of neuronal cells (neuronal cells): 10% | Masson staining: area of cardiac fibrosis (myocardial tissue; ISO+IGF1-24-treated group vs ISO-injured group, FIG. 12): significantly reduced | HE staining of cardiac tissue: repair effect (myocardial tissue; ISO+IGF1-24 group compared with ISO+PBS group, FIG. 10): the repair effect was obvious | rate of PH3 positive cells in myocardial tissue (myocardial tissue; after ISO injury and IGF1-24 treatment, injury without treatment 0.1%, FIG. 13A-B): 0.8% | rate of Edu positive cells in myocardial tissue (myocardial tissue; after ISO injury and IGF1-24 treatment, injury without treatment 0.5%, FIG. 13A-B): 1.4% | number of Ki67-positive cells (immunohistochemistry of heart tissue) (myocardial tissue; treatment group vs injury group, FIG. 13C): differed significantly
